{
  "source": "patent US10201523B2",
  "about": "“Use of wilforlide A for overcoming chemotherapy resistance” (WESTERN UNIVERSITY OF HEALTH SCIENCES, priority 2013, dated 2019)",
  "system": "Bt474-TxR",
  "experiment": "SRB cell viability assay, lapatinib with/without wilforlide A pretreatment",
  "type": "cell-based",
  "key": {"[1]": {"conditions": "Lapatinib 0.067 μM, 72 h, no wilforlide A pretreatment, Table 25"}, "[2]": {"conditions": "Lapatinib 0.2 μM, 72 h, pretreated with 25 μg/ml wilforlide A for 2 h, Table 26"}, "[3]": {"conditions": "Lapatinib 0.67 μM, 72 h, no wilforlide A pretreatment, Table 27"}, "[4]": {"conditions": "Lapatinib 0.67 μM, 72 h, pretreated with 25 μg/ml wilforlide A for 2 h, Table 26"}, "[5]": {"conditions": "Lapatinib 2.0 μM, 72 h, no wilforlide A pretreatment, Table 25"}, "[6]": {"conditions": "Lapatinib 2.0 μM, 72 h, no wilforlide A pretreatment, Table 27"}, "[7]": {"conditions": "Lapatinib 2.0 μM, 72 h, pretreated with 25 μg/ml wilforlide A for 2 h, Table 26"}, "[8]": {"conditions": "Lapatinib 6.7 μM, 72 h, no wilforlide A pretreatment, Table 25"}, "[9]": {"conditions": "Lapatinib 6.7 μM, 72 h, no wilforlide A pretreatment, Table 27"}, "[10]": {"conditions": "Lapatinib 6.7 μM, 72 h, pretreated with 25 μg/ml wilforlide A for 2 h, Table 26"}, "[11]": {"conditions": "Lapatinib 20 μM, 72 h, no wilforlide A pretreatment, Table 25"}, "[12]": {"conditions": "Lapatinib 20 μM, 72 h, no wilforlide A pretreatment, Table 27"}, "[13]": {"conditions": "Lapatinib 20 μM, 72 h, pretreated with 25 μg/ml wilforlide A for 2 h, Table 26"}},
  "note": "Where “and” joins values, the source holds several entries; their conditions need not be identical. Equal entries are not always repeated.",
  "data": [
    {"smiles": "CS(=O)(=O)CCNCc1ccc(-c2ccc3ncnc(Nc4ccc(OCc5cccc(F)c5)c(Cl)c4)c3c2)o1", "note": "[lapatinib]", "values": [
      {"measurement": "A at 565 nm", "setting": "Bt474-TxR, wilforlide A 2.5 μg/ml pre-Tx, lapatinib 0.67 μM 72 h, background = 0.045", "value": "0.898 and 0.975"},
      {"measurement": "mean A", "setting": "Bt474-TxR, wilforlide A 2.5 μg/ml pre-Tx, lapatinib 2.0 μM 72 h", "value": 0.849},
      {"measurement": "A at 565 nm", "setting": "Bt474-TxR, wilforlide A 2.5 μg/ml pre-Tx, lapatinib 2.0 μM 72 h, background = 0.045", "value": "0.895 and 0.791 and 0.861"},
      {"measurement": "mean A", "setting": "Bt474-TxR, wilforlide A 2.5 μg/ml pre-Tx, lapatinib 6.7 μM 72 h", "value": 0.884},
      {"measurement": "A at 565 nm", "setting": "Bt474-TxR, wilforlide A 2.5 μg/ml pre-Tx, lapatinib 6.7 μM 72 h, background = 0.045", "value": "0.947 and 0.814 and 0.893"},
      {"measurement": "mean A", "setting": "Bt474-TxR, wilforlide A 2.5 μg/ml pre-Tx, lapatinib 20 μM 72 h", "value": 0.768},
      {"measurement": "A at 565 nm", "setting": "Bt474-TxR, wilforlide A 2.5 μg/ml pre-Tx, lapatinib 20 μM 72 h, background = 0.045", "value": "0.798 and 0.689 and 0.817"},
      {"measurement": "viability at 0.001 µM", "setting": "Lapatinib 0.001 μM, 72 h, no wilforlide A pretreatment, Table 25", "value": 100, "unit": "%"},
      {"measurement": "A at 565 nm", "setting": "Lapatinib 0.001 μM, 72 h, no wilforlide A pretreatment, Table 25, background = 0.045", "value": "1.272 and 1.341"},
      {"measurement": "viability at 0.001 µM", "setting": "Lapatinib 0.001 μM, 72 h, no wilforlide A pretreatment, Table 27", "value": 100, "unit": "%"},
      {"measurement": "viability at 0.001 µM", "setting": "Lapatinib 0.001 μM, 72 h, pretreated with 25 μg/ml wilforlide A for 2 h, Table 26", "value": 100, "unit": "%"},
      {"measurement": "mean A", "setting": "Lapatinib 0.01 μM, 72 h, no wilforlide A pretreatment, Table 25", "value": 1.338},
      {"measurement": "A at 565 nm", "setting": "Lapatinib 0.01 μM, 72 h, no wilforlide A pretreatment, Table 25, background = 0.045", "value": "1.352 and 1.344 and 1.318"},
      {"measurement": "viability at 0.01 µM", "setting": "Lapatinib 0.01 μM, 72 h, no wilforlide A pretreatment, Table 27", "value": 99.5, "unit": "%"},
      {"measurement": "viability at 0.01 µM", "setting": "Lapatinib 0.01 μM, 72 h, pretreated with 25 μg/ml wilforlide A for 2 h, Table 26", "value": 96.2, "unit": "%"},
      {"measurement": "mean A", "setting": "[1]", "value": 1.304},
      {"measurement": "viability at 0.067 µM", "setting": "[1]", "value": 105, "unit": "%"},
      {"measurement": "A at 565 nm", "setting": "Lapatinib 0.067 μM, 72 h, no wilforlide A pretreatment, Table 25, background = 0.045", "value": "1.320 and 1.343"},
      {"measurement": "viability at 0.067 µM", "setting": "Lapatinib 0.067 μM, 72 h, no wilforlide A pretreatment, Table 27", "value": 98.7, "unit": "%"},
      {"measurement": "viability at 0.067 µM", "setting": "Lapatinib 0.067 μM, 72 h, pretreated with 25 μg/ml wilforlide A for 2 h, Table 26", "value": 94.6, "unit": "%"},
      {"measurement": "viability at 0.2 µM", "setting": "Lapatinib 0.2 μM, 72 h, no wilforlide A pretreatment, Table 25", "value": 92.8, "unit": "%"},
      {"measurement": "viability at 0.2 µM", "setting": "Lapatinib 0.2 μM, 72 h, no wilforlide A pretreatment, Table 27", "value": 94, "unit": "%"},
      {"measurement": "mean A", "setting": "[2]", "value": 0.994},
      {"measurement": "viability at 0.2 µM", "setting": "[2]", "value": 86.6, "unit": "%"},
      {"measurement": "A at 565 nm", "setting": "Lapatinib 0.2 μM, 72 h, pretreated with 25 μg/ml wilforlide A for 2 h, Table 26, background = 0.047", "value": 0.963},
      {"measurement": "viability at 0.67 µM", "setting": "Lapatinib 0.67 μM, 72 h, no wilforlide A pretreatment, Table 25", "value": 87, "unit": "%"},
      {"measurement": "mean A", "setting": "[3]", "value": 0.994},
      {"measurement": "viability at 0.67 µM", "setting": "[3]", "value": 85, "unit": "%"},
      {"measurement": "A at 565 nm", "setting": "Lapatinib 0.67 μM, 72 h, no wilforlide A pretreatment, Table 27, background = 0.047", "value": 0.955},
      {"measurement": "mean A", "setting": "[4]", "value": 0.872},
      {"measurement": "viability at 0.67 µM", "setting": "[4]", "value": 76, "unit": "%"},
      {"measurement": "A at 565 nm", "setting": "Lapatinib 0.67 μM, 72 h, pretreated with 25 μg/ml wilforlide A for 2 h, Table 26, background = 0.047", "value": "0.813 and 0.937 and 0.865"},
      {"measurement": "mean A", "setting": "[5]", "value": 0.987},
      {"measurement": "viability at 2 µM", "setting": "[5]", "value": 79.1, "unit": "%"},
      {"measurement": "A at 565 nm", "setting": "Lapatinib 2.0 μM, 72 h, no wilforlide A pretreatment, Table 25, background = 0.045", "value": 0.951},
      {"measurement": "mean A", "setting": "[6]", "value": 0.831},
      {"measurement": "viability at 2 µM", "setting": "[6]", "value": 71, "unit": "%"},
      {"measurement": "A at 565 nm", "setting": "Lapatinib 2.0 μM, 72 h, no wilforlide A pretreatment, Table 27, background = 0.047", "value": "0.887 and 0.809 and 0.797"},
      {"measurement": "mean A", "setting": "[7]", "value": 0.832},
      {"measurement": "viability at 2 µM", "setting": "[7]", "value": 72.5, "unit": "%"},
      {"measurement": "A at 565 nm", "setting": "Lapatinib 2.0 μM, 72 h, pretreated with 25 μg/ml wilforlide A for 2 h, Table 26, background = 0.047", "value": "0.876 and 0.831 and 0.789"},
      {"measurement": "mean A", "setting": "[8]", "value": 0.925},
      {"measurement": "viability at 6.7 µM", "setting": "[8]", "value": 74.2, "unit": "%"},
      {"measurement": "A at 565 nm", "setting": "Lapatinib 6.7 μM, 72 h, no wilforlide A pretreatment, Table 25, background = 0.045", "value": "0.926 and 0.823"},
      {"measurement": "mean A", "setting": "[9]", "value": 0.795},
      {"measurement": "viability at 6.7 µM", "setting": "[9]", "value": 68, "unit": "%"},
      {"measurement": "A at 565 nm", "setting": "Lapatinib 6.7 μM, 72 h, no wilforlide A pretreatment, Table 27, background = 0.047", "value": "0.866 and 0.798 and 0.722"},
      {"measurement": "mean A", "setting": "[10]", "value": 0.729},
      {"measurement": "viability at 6.7 µM", "setting": "[10]", "value": 63.5, "unit": "%"},
      {"measurement": "A at 565 nm", "setting": "Lapatinib 6.7 μM, 72 h, pretreated with 25 μg/ml wilforlide A for 2 h, Table 26, background = 0.047", "value": "0.663 and 0.737 and 0.787"},
      {"measurement": "mean A", "setting": "[11]", "value": 0.876},
      {"measurement": "viability at 20 µM", "setting": "[11]", "value": 70.2, "unit": "%"},
      {"measurement": "A at 565 nm", "setting": "Lapatinib 20 μM, 72 h, no wilforlide A pretreatment, Table 25, background = 0.045", "value": "0.911 and 0.914 and 0.803"},
      {"measurement": "mean A", "setting": "[12]", "value": 0.746},
      {"measurement": "viability at 20 µM", "setting": "[12]", "value": 63.8, "unit": "%"},
      {"measurement": "A at 565 nm", "setting": "Lapatinib 20 μM, 72 h, no wilforlide A pretreatment, Table 27, background = 0.047", "value": "0.807 and 0.697 and 0.735"},
      {"measurement": "mean A", "setting": "[13]", "value": 0.587},
      {"measurement": "viability at 20 µM", "setting": "[13]", "value": 51.2, "unit": "%"},
      {"measurement": "A at 565 nm", "setting": "Lapatinib 20 μM, 72 h, pretreated with 25 μg/ml wilforlide A for 2 h, Table 26, background = 0.047", "value": "0.530 and 0.655 and 0.577"}
    ]}
  ]
}
